According to paper PMC3836372 (Biochemical and biophysical research communications, 2013):

Biological target: BmorOR1·BmorOrco (Bombyx mori, UniProt Q5WA61, P178A)
Type: cell-based
Conditions: agonist; co-expressed with BmorOrco; 0.1% DMSO; -80 mV

## CCC/C=C\C=C\CCCCCCCCCO [bombykol, (10E,12Z)-hexadecadien-1-ol]
  two-electrode voltage clamp, Xenopus oocytes, dose-response of odorant-induced c: the effect on P178A-BmorOR1 was moderate
